Values joined by “and” are separate entries in the source; they are usually repeats but may differ in a detail not shown here. Equal entries are not always repeated. Where two headings read alike, the source gives them in different places.
Tests used:
[1] = Pharmacokinetic assessment of X842 in rats (IV, single oral, repeated oral); type: in vivo, Sprague-Dawley rats; conditions: for Cmax / AUC(0-t) / half-life: Sprague-Dawley, rat, plasma; for AUC(0-t): read-out: AUC(0–24h)
Method: Male and female Sprague-Dawley rats weighing approximately 150 g were housed individually with a 12-h light/dark cycle. Food and water were provided ad libitum, except during overnight fasting (10–16 h) prior to oral drug administration, as described previously ([Kotegawa et al., 1998]; [Kotegawa et al., 2002]). To investigate the absorption kinetics of X842 (prodrug) and linaprazan (metabolite, parent drug) in rats after oral and intravenous administration of X842, X842 were dissolved in 5% Solutol HS15/45% ethanol/10% PEG400/40% saline, and methane sulfonic acid was used to adjust to pH 3, yielding solutions with concentrations of 0.6 mg/mL, 2.4 mg/mL, and 9.6 mg/mL for oral administration. For intravenous (IV) injection, a drug solution (0.6 mg/mL) was prepared and filtered through a 0.22-μm filter. Blood samples were collected via the jugular vein of conscious rats (without intubation, narcotics, or antibiotics) prior to dosing and at 0.083, 0.25, 0.5, 1, 2, 4, 6, 8, and 24 h after dosing. Blood samples were placed into tubes containing sodium heparin and centrifuged at 3,500 rpm for 10 min at 4 °C. Following centrifugation, the plasma was transferred to clean tubes and stored at −80 °C until further analysis. All animals were euthanized by carbon dioxide (CO2) inhalation after the final blood sample collection.
Pharmacokinetic assessments were conducted by Shanghai Medicilon Inc. Using C18 solid-phase extraction (Shimadzu UFLC-20A, ACE 3, C18, 3.0 µm, 150 × 4.6 mm; Shimadzu, Japan) with the following conditions: mobile phase A: 1 M ammonium acetate in water, mobile phase B: 100% acetonitrile; gradient 0–5 min: 100% A, 5–30 min: 85% A, 35–63 min: 75% A, 63–65 min: 55% A, 65–70 min: 0% A, 72–87 min: 100% A; flow rate 0.7 mL/min; column temperature 30 °C ([Weidof and Covey, 1992]). […] Bioavailability was calculated as F (%) = (Doseiv × AUCpo(0–24h)) ÷ (Dosepo × AUCiv (0–24h)) × 100%, where “po” represents oral administration and “iv” represents intravenous administration.

Gastric H+/K+-ATPase = target: T1, Gastric H+/K+-ATPase (Oryctolagus cuniculus, UniProt P27112); assay: Inhibition of H+/K+-ATPase activity (Malachite Green Pi assay); type: biochemical, rabbit
T1 construct: Gastric H^+/K^+-ATPase was prepared from rabbit glands; from tissue; host or cells: rabbit gastric glands
Method: The H^+/K^+-ATPase inhibition reaction was performed in buffer (50 mM Tris-HCl, 5 mM magnesium chloride, 10 μM valinomycin, pH 6.5) with or without 20 mM potassium chloride (KCl), and inorganic phosphate (Pi) was detected using Malachite Green solution, made from 0.1% malachite green, 1.5% hexaammonium molybdate, and 0.2% Tween-20 in a ratio of 100:25:2 ([Skou, 1982]; [Feng et al., 2011]). Gastric H^+/K^+-ATPase was prepared from rabbit glands, as described previously ([Kondo et al., 2012]; [Arikawa et al., 2012]). The reaction occurred in a 96-well plate with a total volume of 50 µL/well, including buffer, enzyme, ATP, and drug. After 30 min at 37 °C for enzyme stability, ATP was added at 0.2 mM to start the reaction, which was optimized from the titration experiments. The reaction lasted 20 min at 37 °C, followed by the addition of Malachite Green for the colorimetric assay. The enzyme control wells contained the full enzyme system, while the buffer control wells contained only buffer to correct for background values. Absorbance was measured at 620 nm using a plate reader (SpectraMax M5). The inhibition rate was calculated using the following formula, accounting for the enzyme activity in the presence and absence of K^+: Inhibition Rate %=ODwith K+and enzyme,without drug−ODwith K+and enzyme,with drug /ODwith K+and enzyme,without drug−ODwithout K+and enzyme,without drug×100 where “OD with K^+ and enzyme, without drug” is the optical density measured at 620 nm in the presence of K^+ and enzyme, without the tested drug (enzyme control wells); “OD with K^+ and enzyme, with drug” is the optical density measured at 620 nm in the presence of K^+ and enzyme, with the tested drug; and “OD without K^+ and enzyme, without drug” is the optical density measured at 620 nm in the absence of K^+ and enzyme, without the tested drug (buffer control wells).

[2] = female, iv, 0.6 mg/kg, female rats, intravenous X842, plasma analyte as labelled
[3] = female, iv, 0.6 mg/kg, female rats, intravenous X842, plasma analyte as labelled, read-out: t1/2 (converted)
[4] = female, po, 0.6 mg/kg, female rats, single oral X842 0.6 mg/kg, analyte as labelled
[5] = female, po, 0.6 mg/kg, female rats, single oral X842 0.6 mg/kg, analyte as labelled, read-out: t1/2 (converted)
[6] = female, po, 2.4 mg/kg, female rats, single oral X842 2.4 mg/kg, analyte as labelled
[7] = female, po, 2.4 mg/kg, female rats, single oral X842 2.4 mg/kg, analyte as labelled, read-out: t1/2 (converted)
[8] = female, po, 2.4 mg/kg, female rats, single oral X842, 2.4 mg/kg (third dose group)
[9] = male, iv, 0.6 mg/kg, male rats, intravenous X842, plasma analyte as labelled
[10] = male, iv, 0.6 mg/kg, male rats, intravenous X842, plasma analyte as labelled (prodrug X842 / parent linaprazan), read-out: t1/2 (converted)
[11] = male, po, 0.6 mg/kg, male rats, single oral X842 0.6 mg/kg, analyte as labelled
[12] = male, po, 2.4 mg/kg, male rats, single oral X842 2.4 mg/kg, analyte as labelled
[13] = male, po, 2.4 mg/kg, male rats, single oral X842 2.4 mg/kg, analyte as labelled, read-out: t1/2 (converted)
[14] = male, po, 2.4 mg/kg, male rats, single oral X842, 2.4 mg/kg (third dose group)
[15] = in the presence of K+ (20 mM KCl), pH 6.5, read-out: IC50, H+/K+-ATPase inhibition
[16] = in the presence of potassium ions, rabbit gastric glands, read-out: IC50 (Figure 7A)
[17] = female, po, 9.6 mg/kg, female rats, single oral X842 9.6 mg/kg, analyte as labelled
[18] = male, po, 9.6 mg/kg, male rats, single oral X842 9.6 mg/kg, analyte as labelled

T1 sequence (P27112 whole entry): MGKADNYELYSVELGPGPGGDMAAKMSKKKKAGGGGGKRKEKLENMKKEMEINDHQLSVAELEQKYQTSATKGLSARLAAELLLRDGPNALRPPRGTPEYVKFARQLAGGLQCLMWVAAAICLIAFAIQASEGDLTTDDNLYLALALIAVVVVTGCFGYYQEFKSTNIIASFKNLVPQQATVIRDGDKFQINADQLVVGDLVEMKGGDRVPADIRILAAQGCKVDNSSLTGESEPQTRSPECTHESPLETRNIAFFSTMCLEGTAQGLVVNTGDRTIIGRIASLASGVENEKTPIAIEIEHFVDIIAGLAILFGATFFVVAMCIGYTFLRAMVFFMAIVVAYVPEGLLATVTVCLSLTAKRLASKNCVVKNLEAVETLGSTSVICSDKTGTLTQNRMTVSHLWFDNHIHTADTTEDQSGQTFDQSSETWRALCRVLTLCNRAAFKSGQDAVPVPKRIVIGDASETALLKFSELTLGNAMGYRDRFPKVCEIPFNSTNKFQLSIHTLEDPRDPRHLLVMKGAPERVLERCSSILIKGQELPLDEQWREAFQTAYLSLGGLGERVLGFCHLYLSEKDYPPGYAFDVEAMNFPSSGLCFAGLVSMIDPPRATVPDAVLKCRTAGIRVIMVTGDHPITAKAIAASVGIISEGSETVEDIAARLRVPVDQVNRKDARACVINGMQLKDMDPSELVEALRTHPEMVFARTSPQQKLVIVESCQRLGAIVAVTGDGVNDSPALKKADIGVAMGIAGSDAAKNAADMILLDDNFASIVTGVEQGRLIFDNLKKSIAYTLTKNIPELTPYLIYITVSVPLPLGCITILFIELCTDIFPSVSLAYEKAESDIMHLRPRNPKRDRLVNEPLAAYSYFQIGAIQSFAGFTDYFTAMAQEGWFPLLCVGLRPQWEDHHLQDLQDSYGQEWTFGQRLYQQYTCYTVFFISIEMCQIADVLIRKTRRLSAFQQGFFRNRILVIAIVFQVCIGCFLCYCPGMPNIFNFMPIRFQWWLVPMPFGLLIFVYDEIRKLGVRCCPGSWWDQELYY
T1 sequence (P18597 whole entry partner): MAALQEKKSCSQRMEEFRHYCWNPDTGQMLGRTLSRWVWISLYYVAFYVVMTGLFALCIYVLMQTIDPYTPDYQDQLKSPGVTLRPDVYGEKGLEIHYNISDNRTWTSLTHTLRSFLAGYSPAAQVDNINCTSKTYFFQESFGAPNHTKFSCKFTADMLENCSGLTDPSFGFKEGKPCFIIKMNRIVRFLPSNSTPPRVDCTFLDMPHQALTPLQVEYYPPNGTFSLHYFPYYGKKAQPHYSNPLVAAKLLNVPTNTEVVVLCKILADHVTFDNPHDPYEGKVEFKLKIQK

Cc1cccc(C)c1CNc1cc(C(=O)NCCOC(=O)CCCC(=O)O)cn2c(C)c(C)nc12 [X842, linaprazan glurate]
Cmax [1, 2]: 606 ± 284 ng/mL | AUC(0-t) [1, 2]: 218 ± 101 ng·h/mL | half-life [1, 3]: 0.4 ± 0.03 h | Cmax [1, 4]: 8.7 ± 4.9 ng/mL | AUC(0-t) [1, 4]: 13.8 ± 13.1 ng·h/mL | half-life [1, 5]: 2.8 h | Cmax [1, 6]: 42.6 ± 17.4 ng/mL | AUC(0-t) [1, 6]: 85.6 ± 45.6 ng·h/mL | half-life [1, 7]: 4.1 ± 1.2 h | Cmax [1, 8]: 164 ± 124 ng/mL | AUC(0-t) [1, 8]: 310 ± 256 ng·h/mL | half-life ([1]; female, po, 2.4 mg/kg, female rats, single oral X842, 2.4 mg/kg (third dose group), read-out: t1/2 (converted)): 2.1 ± 0.3 h | half-life ([1]; female, po, female rats, single-dose oral administration, read-out: t1/2 (range over doses)): 2.1 to 4.1 h | Cmax [1, 9]: 448 ± 120 ng/mL | half-life [1, 10]: 0.4 ± 0.1 h | AUC(0-t) [1, 9]: 146 ± 38 ng·h/mL | Cmax [1, 11]: 2.5 ± 1.8 ng/mL | AUC(0-t) [1, 11]: 2.5 ± 2.6 ng·h/mL | Cmax [1, 12]: 14.6 ± 10.1 ng/mL | AUC(0-t) [1, 12]: 18.3 ± 10 ng·h/mL | half-life [1, 13]: 2.6 h | Cmax [1, 14]: 49.7 ± 35.4 ng/mL | AUC(0-t) [1, 14]: 11.6 ± 77.5 ng·h/mL | half-life ([1]; male, po, 2.4 mg/kg, male rats, single oral X842, 2.4 mg/kg (third dose group), read-out: t1/2 (converted)): 2.01 ± 0.18 h | half-life ([1]; male, po, male rats, single-dose oral administration, read-out: t1/2 (range over doses)): 2 to 2.7 h | Plasma concentration after IV administration ([1]; within 0.5 h after IV administration, male and female rats): barely detectable | Inhibitory effect on H+/K+-ATPase in the absence of K+ (Gastric H+/K+-ATPase): No measurable inhibitory effect | Fold lower inhibitory activity against H+/K+-ATPase compared with linaprazan (Gastric H+/K+-ATPase; in the presence of K+): ~10 fold | IC50 (Gastric H+/K+-ATPase; [15]): 436 nM | IC50 (Gastric H+/K+-ATPase; [16]): 436 nM

Cc1cccc(C)c1CNc1cc(C(=O)NCCO)cn2c(C)c(C)nc12 [linaprazan]
Cmax [1, 2]: 80.5 ± 17.7 ng/mL | AUC(0-t) [1, 2]: 133 ± 11.1 ng·h/mL | half-life [1, 3]: 2 ± 0.4 h | Cmax [1, 4]: 13.5 ± 5.8 ng/mL | AUC(0-t) [1, 4]: 67.6 ± 23.7 ng·h/mL | half-life [1, 5]: 3.7 ± 1.6 h | Cmax [1, 6]: 72.5 ± 5.6 ng/mL | AUC(0-t) [1, 6]: 382 ± 44.9 ng·h/mL | half-life [1, 7]: 2.7 ± 0.4 h | Cmax [1, 17]: 336 ± 69.4 ng/mL | AUC(0-t) [1, 17]: 3020 ng·h/mL | half-life ([1]; female, po, 9.6 mg/kg, female rats, single oral X842 9.6 mg/kg, analyte as labelled, read-out: t1/2 (converted)): 2.6 ± 0.1 h | Cmax [1, 9]: 114 ± 17 ng/mL | half-life [1, 10]: 1.4 ± 0.1 h | AUC(0-t) [1, 9]: 114 ± 7.1 ng·h/mL | Cmax [1, 11]: 6.2 ± 1.7 ng/mL | AUC(0-t) [1, 11]: 22.1 ± 9.9 ng·h/mL | half-life ([1]; male, po, 0.6 mg/kg, male rats, single oral X842 0.6 mg/kg, analyte as labelled, read-out: t1/2 (converted)): 2.2 ± 1 h | Cmax [1, 12]: 32 ± 9.7 ng/mL | AUC(0-t) [1, 12]: 134 ± 43.3 ng·h/mL | half-life [1, 13]: 2.6 ± 0.5 h | Cmax [1, 18]: 128 ± 17.5 ng/mL | AUC(0-t) [1, 18]: 576 ± 46.1 ng·h/mL | half-life ([1]; male, po, 9.6 mg/kg, male rats, single oral X842 9.6 mg/kg, analyte as labelled, read-out: t1/2 (converted)): 3.1 ± 0.3 h | Inhibitory effect on H+/K+-ATPase in the absence of K+ (Gastric H+/K+-ATPase): No measurable inhibitory effect | IC50 (Gastric H+/K+-ATPase; [15]): 40 nM and 40.2 nM | IC50 (Gastric H+/K+-ATPase; [16]): 40.2 nM
